pIC50: −log10 of the molar value.
How the values were obtained:
[1] = tested on: DU145 human prostate tumor cells; experiment: Inhibition of cell proliferation, crystal violet staining; assay type: cell-based; conditions: DU145, 4 days incubation
Method: (§1) Cell cultures of the following cell lines were prepared in 96-well microtiter plates: • 1. MaTu/ADR multidrug-resistant human breast tumor cells (Epo GmbH Berlin), 5000 cells/well. • 2. HCT116 human colon tumor cells (ATCC CCL-247), 3000 cells/well. • 3. NCl-H460 human non-small-cell lung cancer cells (ATCC HTB-177), 3000 cells/well. • 4. DU145 human prostate tumor cells (ATCC HTB-81), 5000 cells/well. • 5. HMVEC human primary dermal microvascular endothelial cells, 7500 cells/well.
(§2) After 24 hours of incubation in a cell culture incubator at 37° C., the cells of a microtiter plate were stained with crystal violet (reference plate), while the cells in the test plates were incubated for 4 days with the test substances in the concentrations […], as well as with the DMSO solvent by itself (solvent control). The cell proliferation was determined by staining cells with crystal violet. The extinction of the crystal violet was determined by photometry at 595 nm. The percentage of the change in the cell number in the test plates was determined after the extinction values were normalized to the reference plate (0%) and to the solvent control (100%). The semi-maximal inhibition of the cell growth (IC50) was determined as the substance concentration, in which 50% of the cell number of the solvent controls were present.

[2] = tested on: HMVEC human primary dermal microvascular endothelial cells; experiment: as above; assay type: cell-based; conditions: 4 days incubation
Method: as §1, §2

[3] = tested on: MaTu/ADR multidrug-resistant human breast tumor cells; experiment: as above; assay type: cell-based; conditions: 4 days incubation
Method: as §1, §2

[4] = tested on: NCl-H460 human non-small-cell lung cancer cells; experiment: as above; assay type: cell-based; conditions: NCl-H460, 4 days incubation
Method: as §1, §2

[5] = tested on: HCT116 human colon tumor cells; experiment: as above; assay type: cell-based; conditions: HCT116, 4 days incubation
Method: as §1, §2

[6] = biological target: T1, microtubular protein (tubulin) purified from pig brains (Sus scrofa, UniProt P02550+P02554); experiment: Inhibition of tubulin polymerization (turbidimetry at 340 nm); assay type: biochemical; conditions: pig brain microtubular protein 1 mg/ml, 0.25 mmol GTP, 37° C.
T1 construct: microtubular protein was purified from pig brains via cyclic assembling/disassembling; from tissue; host or cells: pig brain
T1 sequence (P02550 whole entry): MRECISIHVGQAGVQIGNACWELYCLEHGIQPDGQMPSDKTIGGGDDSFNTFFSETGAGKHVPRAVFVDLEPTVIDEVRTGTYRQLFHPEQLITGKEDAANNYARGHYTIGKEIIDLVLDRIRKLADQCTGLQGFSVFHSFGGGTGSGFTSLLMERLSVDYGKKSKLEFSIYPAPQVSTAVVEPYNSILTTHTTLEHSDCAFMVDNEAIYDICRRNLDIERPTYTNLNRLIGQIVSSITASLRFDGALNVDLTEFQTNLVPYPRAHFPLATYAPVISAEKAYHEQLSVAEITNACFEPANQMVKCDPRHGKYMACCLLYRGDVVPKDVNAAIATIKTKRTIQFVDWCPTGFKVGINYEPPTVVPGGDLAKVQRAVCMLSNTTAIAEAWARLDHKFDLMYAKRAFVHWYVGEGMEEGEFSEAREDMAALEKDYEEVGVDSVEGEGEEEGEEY
T1 sequence (P02554 whole entry): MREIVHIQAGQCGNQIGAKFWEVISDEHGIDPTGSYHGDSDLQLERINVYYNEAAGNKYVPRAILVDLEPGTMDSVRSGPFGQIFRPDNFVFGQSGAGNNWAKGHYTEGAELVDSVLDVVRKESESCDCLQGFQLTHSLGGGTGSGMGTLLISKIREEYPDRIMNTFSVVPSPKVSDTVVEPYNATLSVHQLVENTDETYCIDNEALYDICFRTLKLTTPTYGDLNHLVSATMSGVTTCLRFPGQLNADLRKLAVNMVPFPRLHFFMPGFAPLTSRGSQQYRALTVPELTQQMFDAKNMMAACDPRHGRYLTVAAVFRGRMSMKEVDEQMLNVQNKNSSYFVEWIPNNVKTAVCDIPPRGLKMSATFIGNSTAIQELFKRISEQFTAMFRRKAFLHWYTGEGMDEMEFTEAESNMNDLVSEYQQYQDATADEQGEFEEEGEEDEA
Method: The in-vitro testing of the tubulin polymerization influence was performed as follows:
The buffer system used had the following composition: 20 mmol of PIPES (1,4-piperazine-diethane-sulfonic acid, pKa 6.8), 80 mmol of NaCl, 0.5 mmol of MgCl2, 1 mmol of EGTA (ethylene glycol-bis-(2-aminoethylene)-tetraacetic acid).
For active ingredient testing, protein concentrations of 1 mg/ml (about 10^−5 mmol of tubulin) were used. […] The assembling of microtubuli was carried out in the presence of 0.25 mmol of GTP and heating the samples to 37° C.
The microtubulus formation was examined by means of turbidimetry at a wavelength of 340 nm.
Testing of the active ingredients was carried out by their addition at the beginning of the assembling or in the state of equilibrium. Deviations of turbidity curves from the control characterize its activity. To monitor action and to evaluate the measured turbidity values, a transmission electron microscopic study (CEM 902 A, Zeiss/Oberkochen) of the assemblates was always performed after negative staining with 1% aqueous uranyl acetate.

Row | pIC50 [1] | pIC50 [3] | pIC50 [4] | pIC50 [5] | SMILES | pIC50 [2] | pIC50 [6] | pIC50 ([1]; Homo sapiens, DU-145, 96 h) | pIC50 ([2]; Homo sapiens, 96 h) | pIC50 ([3]; Homo sapiens, 96 h) | pIC50 ([4]; Homo sapiens, 96 h) | pIC50 ([5]; Homo sapiens, HCT-116, 96 h)
1 | 6.26 | 6.89 | 6.30 | 6.30 | C=C1CC[C@H]2[C@@H]3CC(=NO)c4cc(OS(N)(=O)=O)c(OC)cc4[C@H]3CC[C@]12C [(7), 2-Methoxy-17(20)-methylene-6-oximino-estra-1,3,5(10)-trien-3-yl Sulfamate] | 6.89 |  |  |  |  |  | 
2 | 5.72 | 6.70 | 5.74 | 5.96 | COc1cc2c(cc1O)CC[C@@H]1[C@@H]2CC[C@]2(C)[C@@H](O)CC[C@@H]12 [2-Methoxyestradiol, reference compound] | 5.66 | 5.57 |  |  |  |  | 
3 |  |  |  |  | COc1cc2c(cc1OS(N)(=O)=O)CC[C@@H]1[C@@H]2CC[C@]2(C)CCC[C@@H]12 [(1), 2-Methoxy-estra-1,3,5(10)-trien-3-yl Sulfamate] |  | 6.17 | 6.30 | > 7.00 | 6.96 | 6.40 | 6.40
4 |  |  |  |  | COc1cc2c(cc1OS(N)(=O)=O)CC[C@@H]1[C@@H]2CC[C@]2(C)C(=C(F)F)CC[C@@H]12 [(8), 17(20)-Difluoromethylene-2-methoxy-estra-1,3,5(10)-trien-3-yl Sulfamate] |  | 5.96 | 6.30 | 6.70 | 6.77 | 6.66 | 6.52
5 |  |  |  |  | C=C1CC[C@H]2[C@@H]3CCc4cc(OS(N)(=O)=O)c(OC)cc4[C@H]3CC[C@]12C [(4), 2-Methoxy-17(20)-methylene-estra-1,3,5(10)-trien-3-yl Sulfamate] |  | 5.85 | 6.74 | 6.80 | > 7.00 | 6.74 | 6.74
6 |  |  |  |  | COc1cc2c(cc1OS(N)(=O)=O)CC[C@@H]1[C@@H]2CC[C@]2(C)[C@@H](C)CC[C@@H]12 [(5), 2-methoxy-17β-methyl-estra-1,3,5(10)-trien-3-yl sulfamate] |  | 5.89 |  |  |  |  | 
7 |  |  |  |  | CC(=O)O[C@H]1C(=O)[C@@]2(C)[C@H]([C@H](OC(=O)c3ccccc3)[C@]3(O)C[C@H](OC(=O)[C@H](O)[C@@H](NC(=O)c4ccccc4)c4ccccc4)C(C)=C1C3(C)C)[C@]1(OC(C)=O)CO[C@@H]1C[C@@H]2O [Taxol, reference compound] |  |  | 8.40 | 8.40 | 6.40 | 8.40 | 8.40
8 |  |  |  |  | CCc1cc2c(cc1OS(N)(=O)=O)CC[C@@H]1[C@@H]2CC[C@]2(C)[C@@H](OC)CC[C@@H]12 [(3), 2-Ethyl-17β-methoxy-estra-1,3,5(10)-trien-3-yl sulfamate] |  | 5.85 | 6.74 | 6.80 | 6.92 | 6.74 | 6.74
9 |  |  |  |  | COc1cc2c(cc1OS(N)(=O)=O)CC[C@@H]1[C@@H]2CC[C@]2(C)[C@@H](C(F)F)CC[C@@H]12 [(9), 17β-Difluoromethyl-2-methoxy-estra-1,3,5(10)-trien-3-yl Sulfamate] |  | 5.82 | 6.40 | 6.70 | 6.96 | 6.66 | 6.52
10 |  |  |  |  | COc1cc2c(cc1OS(N)(=O)=O)CC[C@@H]1[C@@H]2CC[C@]2(C)[C@@H](CO)CC[C@@H]12 [(11), 17β-Hydroxymethyl-2-methoxy-estra-1,3,5(10)-trien-3-yl Sulfamate] |  |  | 6.70 | > 7.00 | > 7.00 | 6.74 | 6.74

— patent US8492570B2, “2-substituted estra-1,3,5(10)-triene-3-yl sulfamate with an anti-tumor action” (Sterix Limited, priority 2003, dated 2013)
